Source: PubChem BioAssay AID1963835 (Molecular Pharmacology Branch, DTP, NCI, 2024)
pIC50: −log10 of the molar value.

Test system: 699152-130-R-J1-PDC complex spheroid viability
Assay: Anticancer human tumor 699152-130-R-J1-PDC patient-derived pancreatic carcinoma cell line growth inhibition [POLQ]
Settings: for pIC50: curve of first compound; for viability, T/C: stronger effect = lower value
Procedure, shortened: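 Three-cell-type spheroids modelling solid tumor plus stroma served as the readout system; POL inhibitors were tested individually and in combination, concentration ranges set by clinical Cmax where known.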

[1] = second compound 0.0316 µM, first compound 0.0316 µM
[2] = second compound 0.0316 µM, first compound 0.1 µM
[3] = second compound 0.0316 µM, first compound 0.316 µM
[4] = second compound 0.0316 µM, first compound 1 µM
[5] = second compound 0.0316 µM, first compound 3.16 µM
[6] = second compound 0.0316 µM, first compound 10 µM
[7] = second compound 0.1 µM, first compound 0.0316 µM
[8] = second compound 0.1 µM, first compound 0.1 µM
[9] = second compound 0.1 µM, first compound 0.316 µM
[10] = second compound 0.1 µM, first compound 1 µM
[11] = second compound 0.1 µM, first compound 3.16 µM
[12] = second compound 0.1 µM, first compound 10 µM
[13] = second compound 0.316 µM, first compound 0.0316 µM
[14] = second compound 0.316 µM, first compound 0.1 µM
[15] = second compound 0.316 µM, first compound 0.316 µM
[16] = second compound 0.316 µM, first compound 1 µM
[17] = second compound 0.316 µM, first compound 3.16 µM
[18] = second compound 0.316 µM, first compound 10 µM
[19] = second compound 1 µM, first compound 0.0316 µM
[20] = second compound 1 µM, first compound 0.1 µM
[21] = second compound 1 µM, first compound 0.316 µM
[22] = second compound 1 µM, first compound 1 µM
[23] = second compound 1 µM, first compound 3.16 µM
[24] = second compound 1 µM, first compound 10 µM
[25] = second compound 3.16 µM, first compound 0.0316 µM
[26] = second compound 3.16 µM, first compound 0.1 µM
[27] = second compound 3.16 µM, first compound 0.316 µM
[28] = second compound 3.16 µM, first compound 1 µM
[29] = second compound 3.16 µM, first compound 3.16 µM
[30] = second compound 3.16 µM, first compound 10 µM
[31] = second compound 10 µM, first compound 0.0316 µM
[32] = second compound 10 µM, first compound 0.1 µM
[33] = second compound 10 µM, first compound 0.316 µM
[34] = second compound 10 µM, first compound 1 µM
[35] = second compound 10 µM, first compound 3.16 µM
[36] = second compound 10 µM, first compound 10 µM
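Also: spheroids exposed to agents for 7 days before viability reading.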
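For viability, T/C in this document: percent of DMSO vehicle control viability so 100% = vehicle and 0% = no viable signal.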

In the case of `O=C(c1cc(Cc2n[nH]c(=O)c3ccccc23)ccc1F)N1CCN(C(=O)C2CC2)CC1` + Nc1ccc(C#CCN(C(=O)Cc2ncc(C(F)(F)F)cc2C(F)(F)F)c2ccc(F)cc2)nn1, the pIC50 (second compound 0.0316 µM) was under 5.00, the pIC50 (second compound 0.1 µM) was under 5.00 and the pIC50 (second compound 0.316 µM) was under 5.00. The pIC50 (second compound 1 µM) was under 5.00, the pIC50 (second compound 3.16 µM) was under 5.00 and the pIC50 (second compound 10 µM) was under 5.00. The viability, T/C [1] was 88.9%, the viability, T/C [2] was 99.8% and the viability, T/C [3] was 81.6%. The viability, T/C [4] was 109%, the viability, T/C [5] was 85.3% and the viability, T/C [6] was 93.2%. The viability, T/C [7] was 95%, the viability, T/C [8] was 110% and the viability, T/C [9] was 97.8%. It also gave a viability, T/C [10] of 95.4%, a viability, T/C [11] of 99.6% and a viability, T/C [12] of 82.3%. The viability, T/C [13] was 100%, the viability, T/C [14] was 114% and the viability, T/C [15] was 101%. It also gave a viability, T/C [16] of 92.8%, a viability, T/C [17] of 96.3% and a viability, T/C [18] of 85.3%. It also gave a viability, T/C [19] of 105%, a viability, T/C [20] of 99.2% and a viability, T/C [21] of 98.5%. It also gave a viability, T/C [22] of 112%, a viability, T/C [23] of 86.7% and a viability, T/C [24] of 77.5%. It also gave a viability, T/C [25] of 108%, a viability, T/C [26] of 113% and a viability, T/C [27] of 114%. For the same molecule, the viability, T/C [28] was 98.6%, the viability, T/C [29] was 88% and the viability, T/C [30] was 81.8%. It also gave a viability, T/C [31] of 103%, a viability, T/C [32] of 107% and a viability, T/C [33] of 108%. The viability, T/C [34] was 107%, the viability, T/C [35] was 113% and the viability, T/C [36] was 97.8%.

For `C=CC(=O)N1CCN(c2nc(=O)n(-c3c(C)ccnc3C(C)C)c3nc(-c4c(O)cccc4F)c(F)cc23)C(C)C1` (stereo not drawn) + COC1C(OC(N)=O)C(O)C(Oc2ccc3c(O)c(NC(=O)c4ccc(O)c(CC=C(C)C)c4)c(=O)oc3c2C)OC1(C)C, the pIC50 (second compound 0.0316 µM) was under 5.00, the pIC50 (second compound 0.1 µM) was under 5.00 and the pIC50 (second compound 0.316 µM) was under 5.00. It also gave a pIC50 (second compound 1 µM) of under 5.00, a pIC50 (second compound 3.16 µM) of under 5.00 and a pIC50 (second compound 10 µM) of under 5.00. For the same molecule, the viability, T/C [1] was 110%, the viability, T/C [2] was 98% and the viability, T/C [3] was 97.7%. It also gave a viability, T/C [4] of 102%, a viability, T/C [5] of 116% and a viability, T/C [6] of 100%. For the same molecule, the viability, T/C [7] was 104%, the viability, T/C [8] was 96.3% and the viability, T/C [9] was 107%. For the same molecule, the viability, T/C [10] was 118%, the viability, T/C [11] was 126% and the viability, T/C [12] was 114%. For the same molecule, the viability, T/C [13] was 123%, the viability, T/C [14] was 108% and the viability, T/C [15] was 109%. For the same molecule, the viability, T/C [16] was 103%, the viability, T/C [17] was 122% and the viability, T/C [18] was 105%. It also gave a viability, T/C [19] of 102%, a viability, T/C [20] of 108% and a viability, T/C [21] of 101%. For the same molecule, the viability, T/C [22] was 108%, the viability, T/C [23] was 129% and the viability, T/C [24] was 104%. It also gave a viability, T/C [25] of 106%, a viability, T/C [26] of 92.8% and a viability, T/C [27] of 99.8%. For the same molecule, the viability, T/C [28] was 105%, the viability, T/C [29] was 125% and the viability, T/C [30] was 114%. The viability, T/C [31] was 116%, the viability, T/C [32] was 94.7% and the viability, T/C [33] was 103%. The viability, T/C [34] was 110%, the viability, T/C [35] was 117% and the viability, T/C [36] was 106%.

`C=CC(=O)N1CCN(c2nc(=O)n(-c3c(C)ccnc3C(C)C)c3nc(-c4c(O)cccc4F)c(F)cc23)C(C)C1` (stereo not drawn) + Cc1cccc(N(C)C(=O)C2C(O)CCN2c2nc(C)cc(C(F)(F)F)c2C#N)c1 showed a pIC50 (second compound 0.0316 µM) of under 5.00, a pIC50 (second compound 0.1 µM) of under 5.00 and a pIC50 (second compound 0.316 µM) of under 5.00. The pIC50 (second compound 1 µM) was under 5.00, the pIC50 (second compound 3.16 µM) was under 5.00 and the pIC50 (second compound 10 µM) was under 5.00. It also gave a viability, T/C [1] of 92.9%, a viability, T/C [2] of 99.6% and a viability, T/C [3] of 102%. It also gave a viability, T/C [4] of 110%, a viability, T/C [5] of 113% and a viability, T/C [6] of 115%. For the same molecule, the viability, T/C [7] was 102%, the viability, T/C [8] was 89.4% and the viability, T/C [9] was 113%. The viability, T/C [10] was 93.8%, the viability, T/C [11] was 119% and the viability, T/C [12] was 105%. The viability, T/C [13] was 99.9%, the viability, T/C [14] was 103% and the viability, T/C [15] was 103%. For the same molecule, the viability, T/C [16] was 103%, the viability, T/C [17] was 114% and the viability, T/C [18] was 110%. It also gave a viability, T/C [19] of 108%, a viability, T/C [20] of 89.7% and a viability, T/C [21] of 102%. It also gave a viability, T/C [22] of 113%, a viability, T/C [23] of 108% and a viability, T/C [24] of 109%. It also gave a viability, T/C [25] of 92.2%, a viability, T/C [26] of 91.3% and a viability, T/C [27] of 98.8%. The viability, T/C [28] was 105%, the viability, T/C [29] was 114% and the viability, T/C [30] was 104%. The viability, T/C [31] was 103%, the viability, T/C [32] was 104% and the viability, T/C [33] was 108%. It also gave a viability, T/C [34] of 109%, a viability, T/C [35] of 120% and a viability, T/C [36] of 119%.

`C=CC(=O)N1CCN(c2nc(=O)n(-c3c(C)ccnc3C(C)C)c3nc(-c4c(O)cccc4F)c(F)cc23)C(C)C1` (stereo not drawn) + Nc1ccc(C#CCN(C(=O)Cc2ncc(C(F)(F)F)cc2C(F)(F)F)c2ccc(F)cc2)nn1 gave a pIC50 (second compound 0.0316 µM) of under 5.00, a pIC50 (second compound 0.1 µM) of under 5.00 and a pIC50 (second compound 0.316 µM) of under 5.00. The pIC50 (second compound 1 µM) was under 5.00, the pIC50 (second compound 3.16 µM) was under 5.00 and the pIC50 (second compound 10 µM) was under 5.00. The viability, T/C [1] was 99%, the viability, T/C [2] was 91.6% and the viability, T/C [3] was 102%. The viability, T/C [4] was 117%, the viability, T/C [5] was 115% and the viability, T/C [6] was 103%. It also gave a viability, T/C [7] of 92.8%, a viability, T/C [8] of 89.6% and a viability, T/C [9] of 106%. For the same molecule, the viability, T/C [10] was 116%, the viability, T/C [11] was 123% and the viability, T/C [12] was 113%. For the same molecule, the viability, T/C [13] was 102%, the viability, T/C [14] was 106% and the viability, T/C [15] was 98.8%. The viability, T/C [16] was 118%, the viability, T/C [17] was 119% and the viability, T/C [18] was 97.4%. For the same molecule, the viability, T/C [19] was 104%, the viability, T/C [20] was 105% and the viability, T/C [21] was 103%. The viability, T/C [22] was 111%, the viability, T/C [23] was 124% and the viability, T/C [24] was 117%. For the same molecule, the viability, T/C [25] was 103%, the viability, T/C [26] was 125% and the viability, T/C [27] was 102%. It also gave a viability, T/C [28] of 119%, a viability, T/C [29] of 114% and a viability, T/C [30] of 95.9%. The viability, T/C [31] was 110%, the viability, T/C [32] was 110% and the viability, T/C [33] was 122%. It also gave a viability, T/C [34] of 109%, a viability, T/C [35] of 125% and a viability, T/C [36] of 121%.
